Experimental data taken from patent US10493102B2, “Methods of inhibiting the virulence of a pathogen with an oxidized tannin to treat a gastrointestinal spasm” (priority 2012, dated 2019).

Experiments:
E. coli = assay: Stability of hydrogen peroxide (bound vs free) in aqueous solution challenged with E. coli; assay type: physicochemical
Text: This method tests the stability of the hydrogen peroxide in the combination. The testing methods used follow the standard procedures set-forth by the Clinical and Laboratory Standards Institute (CLSI) and US Pharmacopeia. • i. E. coli was chosen as the bacteria to challenge the stability of the bound compositions and the free hydrogen peroxide. • ii. The hydrogen peroxide concentration was matched to the selected bacteria in order to form a useful curve representing hydrogen peroxide degradation over time for the samples. As such, the hydrogen peroxide was varied from 62.5 ppm to 500 ppm on a fixed E. coli concentration of 10^6 CFU/ml, and a concentration of 125 ppm was chosen as the initial hydrogen peroxide level used to challenge the E. coli over time. • iii. A ratio of 1:1 of the hydrogen peroxide to each of the model compounds and plant extracts was used to form each bound composition, such that 125 ppm of each plant extract was combined with the 125 ppm of the hydrogen peroxide, • iv. The free hydrogen peroxide was added at a concentration of 125 ppm as a control to show the relative stability of the hydrogen peroxide alone in the aqueous solution as compared to the bound compositions.
FIG. 2A compares stabilities of free hydrogen peroxide to hydrogen peroxide bound to each of: gallic acid (a model polyphenol building block), tannic acid (a model polyphenol), pomegranate husk extract, green tea extract, and Blessed thistle extract. […] In both FIGS. 2A and 2B, there are curves that cannot be identified well individually, as they are identical and overlapping. […]

[1] = Amount of hydrogen peroxide that remains bound to the polyphenol in dry form; assay type: physicochemical; conditions: dry form redissolved in water; WATERWORKS peroxide test strip
Text: Art-recognized procedures, such as those set-forth at least in U.S. Pat. Nos. 3,860,694; 3,864,454; 4,171,280; and 4,966,762, were used as a guide for this study.
As discussed, one of skill will appreciate that hydrogen peroxide in a free form, for example, would otherwise quickly degrade. The polyphenols were provided from model compounds or plant extracts. A dry form of the compositions was made between (i) gallic acid (a model polyphenol building block from Sigma-Aldrich) and hydrogen peroxide; (ii) tannic acid (a model polyphenol component from Sigma-Aldrich) and hydrogen peroxide; (iii) pomegranate husk extract and hydrogen peroxide; and, (iv) green tea extract and hydrogen peroxide; using the procedures taught herein, including: • i. adding a solution of 35% hydrogen peroxide slowly into each of the gallic acid powder, tannic powder, pomegranate husk extract powder; or green tea extract powder. […]

[2] = test system: IBS patients, abdominal pain; conditions: other studies; cited from earlier work

For `OO` [H2O2, hydrogen peroxide], the “hydrogen peroxide level, Hours 0” value (E. coli; 0 h (initial level), 1:1 extract:H2O2, 125 ppm each, E. coli 10^6 CFU/ml) was 125 ppm, the “hydrogen peroxide level, Hours 4” value (E. coli; 4 h, 1:1 extract:H2O2, E. coli 10^6 CFU/ml) was 15 ppm and the “hydrogen peroxide level, Hours 8” value (E. coli; 8 h, 1:1 extract:H2O2, E. coli 10^6 CFU/ml) was 0 ppm. For the same compound, the “hydrogen peroxide level, Hours 12” value (E. coli; 12 h, 1:1 extract:H2O2, E. coli 10^6 CFU/ml) was 0 ppm, the “hydrogen peroxide level, Hours 16” value (E. coli; 16 h, 1:1 extract:H2O2, E. coli 10^6 CFU/ml) was 0 ppm and the “hydrogen peroxide level, Hours 20” value (E. coli; 20 h, 1:1 extract:H2O2, E. coli 10^6 CFU/ml) was 0 ppm. The “hydrogen peroxide level, Hours 24” value (E. coli; 24 h, 1:1 extract:H2O2, E. coli 10^6 CFU/ml) was 0 ppm and the “hydrogen peroxide level after degradation” value (E. coli; within about the first 8 hours) was ~0.0 ppm.
In the case of `O=C(O)c1cc(O)c(O)c(O)c1` [gallic acid], the “hydrogen peroxide bound by total dry wt” value [1] is reported as “about 3.0%”.
In the case of `CN(C)C(=O)C(CCN1CCC(O)(c2ccc(Cl)cc2)CC1)(c1ccccc1)c1ccccc1` [loperamide], the “effect on abdominal pain symptoms compared with placebo” value [2] is listed as “no different from placebo”.
In the case of `O=C(OC[C@H]1O[C@@H](OC(=O)c2cc(O)c(O)c(OC(=O)c3cc(O)c(O)c(O)c3)c2)[C@H](OC(=O)c2cc(O)c(O)c(OC(=O)c3cc(O)c(O)c(O)c3)c2)[C@@H](OC(=O)c2cc(O)c(O)c(OC(=O)c3cc(O)c(O)c(O)c3)c2)[C@@H]1OC(=O)c1cc(O)c(O)c(OC(=O)c2cc(O)c(O)c(O)c2)c1)c1cc(O)c(O)c(OC(=O)c2cc(O)c(O)c(O)c2)c1` [tannic acid], the “hydrogen peroxide bound by total dry wt” value [1] is reported as “about 2.5%”.
